Legend:
Test in all cases: fitness (endpoint OD595 vs no drug) (fraction); higher = more growth
[1] = system: S. aureus DSM 20231
In short: (§1)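 Background-subtracted growth curves were the basis for fitness, taken as the optical density at entry into stationary phase over the robust mean of no-drug control wells. A cap of 1 was applied. The curves came from OD595 readings every 30 min for 14 h at 37 °C, in 384-well plates seeded at OD595 0.01 with 30 µl, or 55 µl for S. pneumoniae.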

[2] = system: S. aureus Newman
In short: as §1

[3] = system: S. pneumoniae D39V
In short: as §1

[4] = system: B. subtilis 168
In short: as §1

CCC[C@@H]1C[C@@H](C(=O)N[C@@H]([C@H]2O[C@H](SC)[C@H](O)[C@@H](O)[C@H]2O)[C@H](C)Cl)N(C)C1 [Clindamycin] + CO/N=C(\C(=O)N[C@@H]1C(=O)N2C(C(=O)[O-])=C(C[N+]3(C)CCCC3)CS[C@H]12)c1csc(N)n1 [Cefepime]
Conditions | fitness
[1], first compound 0.125 µg/mL, partner 0.125 µg/mL | 0.0728
[1], first compound 0.125 µg/mL, partner 0.25 µg/mL | 0.0809
[1], first compound 0.125 µg/mL, partner 0.5 µg/mL | 0.0837
[2], first compound 0.0312 µg/mL, partner 0.125 µg/mL | 0.781
[2], first compound 0.0312 µg/mL, partner 0.25 µg/mL | 0.713
[2], first compound 0.0312 µg/mL, partner 0.5 µg/mL | 0.601
[2], first compound 0.125 µg/mL, partner 0.125 µg/mL | 0.187
[2], first compound 0.125 µg/mL, partner 0.25 µg/mL | 0.158
[2], first compound 0.125 µg/mL, partner 0.5 µg/mL | 0.151
[3], first compound 0.0125 µg/mL, partner 0.0078 µg/mL | 0.809
[3], first compound 0.0125 µg/mL, partner 0.0155 µg/mL | 0.818
[3], first compound 0.0125 µg/mL, partner 0.031 µg/mL | 0.802
[3], first compound 0.015 µg/mL, partner 0.007 µg/mL | 0.914
[3], first compound 0.015 µg/mL, partner 0.014 µg/mL | 0.937
[3], first compound 0.015 µg/mL, partner 0.028 µg/mL | 0.841
[3], first compound 0.025 µg/mL, partner 0.0078 µg/mL | 0.599
[3], first compound 0.025 µg/mL, partner 0.0155 µg/mL | 0.57
[3], first compound 0.025 µg/mL, partner 0.031 µg/mL | 0.523
[3], first compound 0.03 µg/mL, partner 0.007 µg/mL | 0.771
[3], first compound 0.03 µg/mL, partner 0.014 µg/mL | 0.789
[3], first compound 0.03 µg/mL, partner 0.028 µg/mL | 0.696
[3], first compound 0.05 µg/mL, partner 0.0078 µg/mL | 0.264
[3], first compound 0.05 µg/mL, partner 0.0155 µg/mL | 0.255
[3], first compound 0.05 µg/mL, partner 0.031 µg/mL | 0.241
[3], first compound 0.06 µg/mL, partner 0.007 µg/mL | 0.408
[3], first compound 0.06 µg/mL, partner 0.014 µg/mL | 0.411
[3], first compound 0.06 µg/mL, partner 0.028 µg/mL | 0.365

CCC[C@@H]1C[C@@H](C(=O)N[C@@H]([C@H]2O[C@H](SC)[C@H](O)[C@@H](O)[C@H]2O)[C@H](C)Cl)N(C)C1 [Clindamycin] + CO[C@@]12[C@H](COC(N)=O)C3=C(C(=O)C(C)=C(N)C3=O)N1C[C@@H]1N[C@@H]12 [Mitomycin C]
Conditions | fitness
[1], first compound 0.0312 µg/mL, partner 0.0312 µg/mL | 0.466
[1], first compound 0.0312 µg/mL, partner 0.0625 µg/mL | 0.35
[1], first compound 0.0625 µg/mL, partner 0.0156 µg/mL | 0.149
[1], first compound 0.0625 µg/mL, partner 0.0312 µg/mL | 0.117
[1], first compound 0.0625 µg/mL, partner 0.0625 µg/mL | 0.103
[1], first compound 0.125 µg/mL, partner 0.0156 µg/mL | 0.0347
[1], first compound 0.125 µg/mL, partner 0.0312 µg/mL | 0.0369
[1], first compound 0.125 µg/mL, partner 0.0625 µg/mL | 0.083
[2], first compound 0.0312 µg/mL, partner 0.0156 µg/mL | 0.537
[2], first compound 0.0312 µg/mL, partner 0.0312 µg/mL | 0.483
[2], first compound 0.0312 µg/mL, partner 0.0625 µg/mL | 0.412
[2], first compound 0.0625 µg/mL, partner 0.0156 µg/mL | 0.421
[2], first compound 0.0625 µg/mL, partner 0.0312 µg/mL | 0.355
[2], first compound 0.0625 µg/mL, partner 0.0625 µg/mL | 0.243
[2], first compound 0.125 µg/mL, partner 0.0156 µg/mL | 0.138
[2], first compound 0.125 µg/mL, partner 0.0312 µg/mL | 0.163
[2], first compound 0.125 µg/mL, partner 0.0625 µg/mL | 0.0658
[3], first compound 0.0125 µg/mL, partner 0.002 µg/mL | 0.651
[3], first compound 0.0125 µg/mL, partner 0.004 µg/mL | 0.593
[3], first compound 0.0125 µg/mL, partner 0.008 µg/mL | 0.495
[3], first compound 0.015 µg/mL, partner 0.001075 µg/mL | 0.912
[3], first compound 0.015 µg/mL, partner 0.00215 µg/mL | 0.889
[3], first compound 0.015 µg/mL, partner 0.0043 µg/mL | 0.752
[3], first compound 0.025 µg/mL, partner 0.002 µg/mL | 0.36
[3], first compound 0.025 µg/mL, partner 0.004 µg/mL | 0.328
[3], first compound 0.025 µg/mL, partner 0.008 µg/mL | 0.322
[3], first compound 0.03 µg/mL, partner 0.001075 µg/mL | 0.708
[3], first compound 0.03 µg/mL, partner 0.00215 µg/mL | 0.689
[3], first compound 0.03 µg/mL, partner 0.0043 µg/mL | 0.57
[3], first compound 0.05 µg/mL, partner 0.002 µg/mL | 0.187
[3], first compound 0.05 µg/mL, partner 0.004 µg/mL | 0.144
[3], first compound 0.05 µg/mL, partner 0.008 µg/mL | 0.155
[3], first compound 0.06 µg/mL, partner 0.001075 µg/mL | 0.453
[3], first compound 0.06 µg/mL, partner 0.00215 µg/mL | 0.396
[3], first compound 0.06 µg/mL, partner 0.0043 µg/mL | 0.306

CCC[C@@H]1C[C@@H](C(=O)N[C@@H]([C@H]2O[C@H](SC)[C@H](O)[C@@H](O)[C@H]2O)[C@H](C)Cl)N(C)C1 [Clindamycin] + N[C@@H]1CONC1=O [Cycloserine D]
fitness
Conditions | partner 0.125 µg/mL | partner 0.25 µg/mL | partner 0.375 µg/mL | partner 0.5 µg/mL | partner 0.75 µg/mL | partner 1.5 µg/mL
[1], first compound 0.0625 µg/mL | – | – | 0.0659 | – | 0.0748 | 0.0881
[1], first compound 0.125 µg/mL | – | – | 0.0216 | – | 0.0398 | 0.0593
[2], first compound 0.0312 µg/mL | – | – | 0.732 | – | 0.735 | 0.746
[2], first compound 0.125 µg/mL | – | – | 0.0953 | – | 0.115 | 0.103
[4], first compound 0.0625 µg/mL | 0.592 | 0.512 | – | 0.549 | – | –
[4], first compound 0.125 µg/mL | 0.413 | 0.365 | – | 0.363 | – | –
[4], first compound 0.25 µg/mL | 0.396 | 0.348 | – | 0.329 | – | –

fitness, [4], one replicate
Conditions | first compound 0.0039 µg/mL | first compound 0.0078 µg/mL | first compound 0.0156 µg/mL
partner 0.125 µg/mL | 0.985 | 0.927 | 0.879
partner 0.25 µg/mL | 0.974 | 0.859 | 0.796
partner 0.5 µg/mL | ≥ 1 | 0.901 | 0.845

N[C@@H]1CONC1=O [Cycloserine D] + CC1=C\[C@@H](O)CC(=O)Cc2nc(co2)C(=O)N2CCC=C2C(=O)O[C@H](C(C)C)[C@H](C)/C=C/C(=O)NC\C=C\1 [Virginiamycin M1]
fitness
Conditions | first compound 0.125 µg/mL | first compound 0.25 µg/mL | first compound 0.375 µg/mL | first compound 0.5 µg/mL | first compound 0.75 µg/mL | first compound 1.5 µg/mL
[1], partner 0.0625 µg/mL | – | – | ≥ 1 | – | ≥ 1 | 0.955
[1], partner 0.125 µg/mL | – | – | ≥ 1 | – | ≥ 1 | ≥ 1
[1], partner 0.25 µg/mL | – | – | 0.999 | – | 1 | ≥ 1
[2], partner 0.0625 µg/mL | – | – | ≥ 1 | – | 0.969 | 0.985
[2], partner 0.125 µg/mL | – | – | ≥ 1 | – | 0.98 | 0.991
[2], partner 0.25 µg/mL | – | – | ≥ 1 | – | 1 | 0.981
[4], partner 0.0625 µg/mL | 0.967 | 0.971 | – | 0.852 | – | –
[4], partner 0.125 µg/mL | 0.922 | 0.909 | – | 0.916 | – | –
[4], partner 0.25 µg/mL | 0.921 | 0.906 | – | ≥ 1 | – | –

fitness, one replicate
Conditions | first compound 0.375 µg/mL | first compound 0.75 µg/mL | first compound 1.5 µg/mL
[1], partner 0.5 µg/mL | 0.996 | 0.99 | 0.999
[1], partner 1 µg/mL | 0.958 | 0.984 | 0.908
[2], partner 0.5 µg/mL | 0.914 | 0.934 | ≥ 1
[2], partner 1 µg/mL | ≥ 1 | 0.967 | 0.882
[2], partner 2 µg/mL | 0.888 | 0.931 | 0.769

N[C@@H]1CONC1=O [Cycloserine D] + CCCCCCCCCC(=O)N[C@@H]1[C@H]([C@@H]([C@H](O[C@H]1OC2=C3C=C4C=C2OC5=C(C=C(C=C5)[C@H]([C@H]6C(=O)N[C@@H](C7=C(C(=CC(=C7)O)OC8[C@H]([C@H]([C@@H]([C@H](O8)CO)O)O)O)C9=C(C=CC(=C9)[C@H](C(=O)N6)NC(=O)[C@@H]4NC(=O)[C@@H]1C2=CC(=CC(=C2)OC2=C(C=CC(=C2)[C@H](C(=O)N[C@H](CC2=CC(=C(O3)C=C2)Cl)C(=O)N1)N)O)O)O)C(=O)O)O[C@H]1[C@@H]([C@H]([C@@H]([C@H](O1)CO)O)O)NC(=O)C)Cl)CO)O)O [Teicoplanin]
fitness, main component drawn
Conditions | first compound 0.375 µg/mL | first compound 0.75 µg/mL | first compound 1.5 µg/mL
[1], partner 0.1562 µg/mL | ≥ 1 | ≥ 1 | 0.989
[1], partner 0.3125 µg/mL | ≥ 1 | ≥ 1 | ≥ 1
[1], partner 0.625 µg/mL | ≥ 1 | ≥ 1 | ≥ 1
[2], partner 0.1562 µg/mL | ≥ 1 | ≥ 1 | 0.975
[2], partner 0.3125 µg/mL | ≥ 1 | ≥ 1 | ≥ 1
[2], partner 0.625 µg/mL | 0.865 | 0.779 | 0.77

fitness, [2], one replicate, main component drawn
Conditions | first compound 0.375 µg/mL | first compound 0.75 µg/mL | first compound 1.5 µg/mL
partner 0.62 µg/mL | 0.831 | 0.783 | 0.894
partner 1.24 µg/mL | 0.745 | 0.694 | 0.743
partner 2.48 µg/mL | 0.368 | 0.341 | 0.377
